Source: ChEMBL document CHEMBL4616609, “Potent non-hydroxamate inhibitors of histone deacetylase-8: Role and scope of an isoindolin-2-yl linker with an α-amino amide as the zinc-binding unit” (Bioorg Med Chem Lett, 2020)

biological target: T1, Histone deacetylase 8 (Homo sapiens, UniProt Q9BY41); test: Inhibition of HDAC8 (unknown origin)
T1 sequence (Q9BY41 whole entry): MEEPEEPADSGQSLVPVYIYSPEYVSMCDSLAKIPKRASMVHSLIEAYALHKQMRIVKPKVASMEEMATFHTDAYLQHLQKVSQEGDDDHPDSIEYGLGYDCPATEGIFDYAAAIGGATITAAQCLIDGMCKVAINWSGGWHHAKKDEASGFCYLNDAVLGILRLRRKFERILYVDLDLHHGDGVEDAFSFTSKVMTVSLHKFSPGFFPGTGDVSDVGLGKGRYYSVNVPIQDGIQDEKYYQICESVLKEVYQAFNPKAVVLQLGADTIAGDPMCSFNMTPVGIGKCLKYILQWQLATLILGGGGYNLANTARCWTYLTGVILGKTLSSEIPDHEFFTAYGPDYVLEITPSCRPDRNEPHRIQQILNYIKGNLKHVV

SMILES | IC50
N[C@H](Cc1ccccc1)C(=O)N1CCc2ccccc2C1 | 10.7 µM
CNC(=O)[C@H](N)Cc1ccc(Cl)cc1Cl | 16.5 µM
C[C@H](NC(=O)[C@H](N)Cc1ccc(Cl)cc1Cl)c1ccccc1 | 76.4 µM
Nc1ccc2c(c1)CN(C(=O)[C@H](N)Cc1ccc(Cl)cc1Cl)C2 | 0.13 µM
CC(=O)Nc1ccc2c(c1)CN(C(=O)[C@H](N)Cc1ccc(Cl)cc1Cl)C2 | 0.101 µM
N[C@H](Cc1ccc(Cl)cc1Cl)C(=O)N1CCc2ccccc2C1 | 2.06 µM
N[C@H](Cc1ccc(Cl)cc1Cl)C(=O)N1Cc2ccccc2C1 | 0.21 µM
N[C@H](Cc1ccc(Cl)cc1Cl)C(=O)N1Cc2ccc(NC(=O)CCc3ccccc3)cc2C1 | 0.259 µM
N[C@H](Cc1ccccc1)C(=O)N1CCN(c2ccccc2)CC1 | > 600 µM
N[C@H](Cc1ccc(Cl)cc1Cl)C(=O)NCCc1c[nH]c2ccc(O)cc12 | 1.77 µM
CNCc1ccc2c(c1)CN(C(=O)[C@H](N)Cc1ccc(Cl)cc1Cl)C2 | 0.176 µM
C[C@@H](NC(=O)[C@H](N)Cc1ccc(Cl)cc1Cl)c1ccccc1 | 25.3 µM
N[C@H](Cc1ccc(Cl)cc1Cl)C(=O)NCc1cccs1 | 3 µM
N[C@H](Cc1ccc(Cl)cc1Cl)C(=O)NCCc1cccnc1 | 3.85 µM
N[C@H](Cc1ccc(Cl)cc1Cl)C(=O)NCCc1ccc(O)cc1 | 1.25 µM
CNC(=O)c1ccc2c(c1)CN(C(=O)[C@H](N)Cc1ccc(Cl)cc1Cl)C2 | 0.258 µM
N[C@H](Cc1ccc(Cl)cc1Cl)C(=O)NCCc1ccc(O)c(O)c1 | 2.07 µM
N[C@H](Cc1ccc(O)cc1)C(=O)N1CCc2ccccc2C1 | 21.3 µM

Further molecules by falling IC50, results first:

IC50 | SMILES
410 µM | N[C@H](Cc1ccc(Cl)cc1Cl)C(=O)O
16.6 µM | COc1ccc(CNC(=O)[C@H](N)Cc2ccc(Cl)cc2Cl)cc1
11 µM | CN1CCN(C(=O)[C@H](N)Cc2ccccc2)CC1
10.5 µM | N[C@H](Cc1ccc(Cl)cc1Cl)C(=O)Nc1ccc2[nH]c3ccccc3c2c1
8.76 µM | N[C@H](Cc1ccc(Cl)cc1Cl)C(=O)NC1Cc2ccccc2C1
4.28 µM | N[C@H](Cc1ccc(Cl)cc1Cl)C(=O)NCc1ccccc1
4.28 µM | N[C@H](Cc1ccc(O)cc1)C(=O)N1Cc2ccccc2C1
2.67 µM | COc1ccc(NC(=O)[C@H](N)Cc2ccc(Cl)cc2Cl)cc1
2.5 µM | N[C@H](Cc1ccc(Cl)cc1Cl)C(=O)NCCc1ccccc1
2.01 µM | N[C@H](Cc1ccc(Cl)cc1Cl)C(=O)NCCCc1ccccc1
1.15 µM | N[C@H](Cc1ccccc1)C(=O)N1Cc2ccccc2C1
0.97 µM | N[C@H](Cc1ccc(Cl)cc1Cl)C(=O)NCCc1c[nH]c2ccccc12
0.232 µM | N[C@H](Cc1ccc(Cl)cc1Cl)C(=O)N1Cc2ccc(NC(=O)Cc3ccccc3)cc2C1

biological target: Histone deacetylase 1 (Homo sapiens, UniProt Q13547); test: Inhibition of HDAC1 (unknown origin)
Sequence (Q13547 whole entry): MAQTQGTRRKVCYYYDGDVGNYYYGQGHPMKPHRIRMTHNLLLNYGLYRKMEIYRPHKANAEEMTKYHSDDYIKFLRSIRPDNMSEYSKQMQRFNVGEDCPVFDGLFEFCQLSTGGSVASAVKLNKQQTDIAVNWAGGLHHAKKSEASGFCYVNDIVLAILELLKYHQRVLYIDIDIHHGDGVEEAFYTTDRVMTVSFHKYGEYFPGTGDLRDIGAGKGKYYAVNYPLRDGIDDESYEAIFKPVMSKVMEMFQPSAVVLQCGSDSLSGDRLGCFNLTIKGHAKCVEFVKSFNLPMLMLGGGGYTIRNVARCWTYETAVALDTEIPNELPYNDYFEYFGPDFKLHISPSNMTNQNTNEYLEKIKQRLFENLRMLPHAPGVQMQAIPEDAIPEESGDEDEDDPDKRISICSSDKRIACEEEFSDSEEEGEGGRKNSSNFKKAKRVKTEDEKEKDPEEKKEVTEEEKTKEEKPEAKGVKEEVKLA

IC50 | SMILES
8.8 µM | CC(=O)Nc1ccc2c(c1)CN(C(=O)[C@H](N)Cc1ccc(Cl)cc1Cl)C2

biological target: T2, Protein deacetylase HDAC6 (Homo sapiens, UniProt Q9UBN7); test: Inhibition of HDAC6 (unknown origin)
T2 sequence (Q9UBN7 whole entry): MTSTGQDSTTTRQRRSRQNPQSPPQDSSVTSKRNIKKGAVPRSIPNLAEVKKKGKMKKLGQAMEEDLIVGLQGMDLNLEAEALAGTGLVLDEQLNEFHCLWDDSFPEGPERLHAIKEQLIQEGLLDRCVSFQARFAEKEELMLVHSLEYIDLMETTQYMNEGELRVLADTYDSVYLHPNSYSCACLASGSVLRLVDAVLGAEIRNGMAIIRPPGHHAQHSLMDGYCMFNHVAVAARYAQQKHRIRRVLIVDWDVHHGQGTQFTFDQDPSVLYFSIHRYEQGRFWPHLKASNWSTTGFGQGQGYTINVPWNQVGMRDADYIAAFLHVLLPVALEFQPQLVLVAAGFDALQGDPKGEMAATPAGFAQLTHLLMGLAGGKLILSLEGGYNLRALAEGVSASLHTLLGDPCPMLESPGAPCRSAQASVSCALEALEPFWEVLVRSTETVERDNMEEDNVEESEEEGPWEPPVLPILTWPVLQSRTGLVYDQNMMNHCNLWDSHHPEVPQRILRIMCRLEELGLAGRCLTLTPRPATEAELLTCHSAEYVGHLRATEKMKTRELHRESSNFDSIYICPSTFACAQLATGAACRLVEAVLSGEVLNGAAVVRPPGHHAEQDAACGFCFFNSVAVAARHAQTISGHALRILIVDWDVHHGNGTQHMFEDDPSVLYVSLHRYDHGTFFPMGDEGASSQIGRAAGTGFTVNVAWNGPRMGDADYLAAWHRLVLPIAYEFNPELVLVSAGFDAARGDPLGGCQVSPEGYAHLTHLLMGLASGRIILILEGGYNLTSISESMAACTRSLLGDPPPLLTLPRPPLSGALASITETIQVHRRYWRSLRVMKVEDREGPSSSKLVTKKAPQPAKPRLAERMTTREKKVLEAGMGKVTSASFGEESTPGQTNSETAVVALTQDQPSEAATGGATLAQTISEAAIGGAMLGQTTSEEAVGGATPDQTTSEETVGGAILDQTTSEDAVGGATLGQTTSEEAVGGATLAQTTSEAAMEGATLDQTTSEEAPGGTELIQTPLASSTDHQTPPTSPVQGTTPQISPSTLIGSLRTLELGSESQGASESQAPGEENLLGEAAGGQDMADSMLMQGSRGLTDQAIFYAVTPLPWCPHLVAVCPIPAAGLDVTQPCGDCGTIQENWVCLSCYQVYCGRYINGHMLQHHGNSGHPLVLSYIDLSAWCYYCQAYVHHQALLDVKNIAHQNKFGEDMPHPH

IC50 | SMILES
> 30 µM | CC(=O)Nc1ccc2c(c1)CN(C(=O)[C@H](N)Cc1ccc(Cl)cc1Cl)C2

biological target: Histone deacetylase 2 (Homo sapiens, UniProt Q92769); test: Inhibition of HDAC2 (unknown origin)
Sequence (Q92769 whole entry): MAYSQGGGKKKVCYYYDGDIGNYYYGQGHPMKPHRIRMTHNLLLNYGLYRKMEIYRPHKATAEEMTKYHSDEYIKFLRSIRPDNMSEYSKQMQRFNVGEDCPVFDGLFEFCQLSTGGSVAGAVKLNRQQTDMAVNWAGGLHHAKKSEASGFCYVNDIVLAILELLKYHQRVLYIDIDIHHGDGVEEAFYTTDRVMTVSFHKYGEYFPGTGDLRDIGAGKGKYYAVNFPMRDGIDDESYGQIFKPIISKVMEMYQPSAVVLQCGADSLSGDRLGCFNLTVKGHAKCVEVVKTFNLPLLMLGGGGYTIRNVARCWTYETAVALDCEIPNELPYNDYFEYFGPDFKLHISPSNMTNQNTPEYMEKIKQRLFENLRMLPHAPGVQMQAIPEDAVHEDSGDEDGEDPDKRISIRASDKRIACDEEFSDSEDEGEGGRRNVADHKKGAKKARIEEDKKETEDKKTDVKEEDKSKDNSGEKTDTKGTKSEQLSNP

IC50 | SMILES
> 30 µM | CC(=O)Nc1ccc2c(c1)CN(C(=O)[C@H](N)Cc1ccc(Cl)cc1Cl)C2
